Laboratory results reported in PMC5460189, “Melon13-lipoxygenase CmLOX18 may be involved in C6 volatiles biosynthesis in fruit” (Scientific Reports, 2017).

Tested on: T1, CmLOX18
T1 construct: ORF in pYES2.1 TOPO-TA, His-tagged (anti-His), expressed in Saccharomyces cerevisiae INVSc1, purified
Test: increase in A234, Michaelis-Menten plot
Type: biochemical, Cucumis melo
Details: substrate 15-350 μM, pH and temperature of the kinetic runs not stated (optimum pH 4.5, 30 °C)

Km (linolenic acid isomer not given, alpha assumed) [µM]	Km [µM]	Compound
40.7 ± 2.65	–	CC/C=C\C/C=C\C/C=C\CCCCCCCC(=O)O [Linolenic acid]
–	127 ± 18.6	CCCCC/C=C\C/C=C\CCCCCCCC(=O)O [Linoleic acid]
